From patent US8501708B2, “Adenosine compounds and their use thereof” (Inotek Pharmaceuticals Corporation, priority 2011, dated 2013)

What was measured:
[1] = biological target: human recombinant A1 adenosine receptor (Homo sapiens (Human), UniProt P30542); assay: Adenosine receptor binding, displacement of specific [3H]CCPA binding; conditions: [3H]CCPA displacement, CHO cells stably transfected with human recombinant A1 adenosine receptor
Source text: (§1) The compounds were studied in binding assays to determine their selectivity and potency to the A1, A2a and A3 adenosine receptors.

[2] = biological target: human recombinant A2A adenosine receptor (Homo sapiens (Human), UniProt P29274); assay: Adenosine receptor binding, displacement of specific [3H]NECA binding; conditions: [3H]NECA displacement, CHO cells stably transfected with human recombinant A2A adenosine receptor
Sequence of human recombinant A2A adenosine receptor (P29274 whole entry): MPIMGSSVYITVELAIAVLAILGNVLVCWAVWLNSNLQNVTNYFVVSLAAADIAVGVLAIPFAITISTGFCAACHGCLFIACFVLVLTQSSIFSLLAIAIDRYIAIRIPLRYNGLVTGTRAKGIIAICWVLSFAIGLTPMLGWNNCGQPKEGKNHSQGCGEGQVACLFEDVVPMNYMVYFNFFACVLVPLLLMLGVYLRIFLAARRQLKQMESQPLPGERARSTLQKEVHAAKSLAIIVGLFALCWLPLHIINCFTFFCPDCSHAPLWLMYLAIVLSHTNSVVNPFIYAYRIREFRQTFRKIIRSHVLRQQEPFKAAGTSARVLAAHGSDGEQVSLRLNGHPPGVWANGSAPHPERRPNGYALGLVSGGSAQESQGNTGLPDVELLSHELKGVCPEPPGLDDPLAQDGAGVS
Source text: as §1

[3] = biological target: human recombinant A3 adenosine receptor (Homo sapiens (Human), UniProt P0DMS8); assay: as above; conditions: [3H]NECA displacement, CHO cells stably transfected with human recombinant A3 adenosine receptor
Sequence of human recombinant A3 adenosine receptor (P0DMS8 whole entry): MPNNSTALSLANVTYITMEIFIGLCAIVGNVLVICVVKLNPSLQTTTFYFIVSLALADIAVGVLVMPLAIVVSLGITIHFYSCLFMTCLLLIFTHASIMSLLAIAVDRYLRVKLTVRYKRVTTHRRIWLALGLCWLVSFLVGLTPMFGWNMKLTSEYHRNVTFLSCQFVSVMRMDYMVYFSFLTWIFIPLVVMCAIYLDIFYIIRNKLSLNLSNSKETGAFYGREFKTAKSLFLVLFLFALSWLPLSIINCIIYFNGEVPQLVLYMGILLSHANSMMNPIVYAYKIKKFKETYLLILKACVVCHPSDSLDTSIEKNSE
Source text: as §1

[4] = test system: ocular normotensive Dutch-Belted rabbits; assay: Changes in intraocular pressure after topical administration to the eye; format: in vivo, rabbit; conditions: for changes in IOP relative to baseline after dosing (in words): 0-6 hours
Experimental: The study involved groups of eight rabbits and the rabbits were acclimated for two days before they received a single dose in either the right eye or left eye of the HPCD control. The IOP of the groups of rabbits were recorded at 0, 1, 2, 4 and 6 hours after dosing of the control.

Sequence of human recombinant A1 adenosine receptor (P30542 whole entry): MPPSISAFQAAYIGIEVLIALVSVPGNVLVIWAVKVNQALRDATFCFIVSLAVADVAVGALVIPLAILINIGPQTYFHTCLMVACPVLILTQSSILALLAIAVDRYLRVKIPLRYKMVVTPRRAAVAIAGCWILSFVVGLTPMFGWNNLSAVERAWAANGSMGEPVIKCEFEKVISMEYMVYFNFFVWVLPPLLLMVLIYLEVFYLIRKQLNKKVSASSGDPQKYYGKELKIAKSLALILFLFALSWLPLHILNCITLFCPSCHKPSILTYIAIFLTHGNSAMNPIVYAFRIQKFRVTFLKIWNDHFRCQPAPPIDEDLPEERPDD

## Cc1ccccc1CO[C@H]1CCC[C@@H]1Nc1ncnc2c1ncn2[C@@H]1O[C@H](CO)[C@@H](O)[C@H]1O [Compound 7, (2R,3S,4R,5R)-2-(hydroxymethyl)-5-(6-((1S,2S)-2-(2-methylbenzyloxy)cyclopentylamino)-9H-purin-9-yl)tetrahydrofuran-3,4-diol]
[1]
  Ki: 0.0126 µM
[2]
  Ki: 7.33 µM
[3]
  Ki: 1.57 µM

## OC[C@H]1OC(n2cnc3c(NC4CCC[C@@H]4OCc4ccc(F)cc4)ncnc32)[C@H](O)[C@@H]1O (stereo partly shown) [Compound 9]
[2]
  Ki: 11.4 µM
[3]
  Ki: 1.87 µM

## OC[C@H]1O[C@@H](n2cnc3c(N[C@@H]4CCC[C@H]4OCc4cccc(F)c4)ncnc32)[C@H](O)[C@@H]1O [Compound 19, (2R,3R,4S,5R)-2-(6-((1R,2R)-2-(3-fluorobenzyloxy)cyclopentylamino)-9H-purin-9-yl)-5-(hydroxymethyl)tetrahydrofuran-3,4-diol]
[2]
  Ki: 2.55 µM
[3]
  Ki: 4.04 µM

## OC[C@H]1O[C@@H](n2cnc3c(N[C@H]4CCC[C@@H]4OCc4cccc(I)c4)ncnc32)[C@H](O)[C@@H]1O [Compound 11, (2R,3S,4R,5R)-2-(hydroxymethyl)-5-(6-((1S,2S)-2-(3-iodobenzyloxy)cyclopentylamino)-9H-purin-9-yl)tetrahydrofuran-3,4-diol]
[4]; topical single dose 200 mcg
  changes in IOP relative to baseline after dosing (in words): do not show significant changes in IOP
[3]
  Ki: 1.29 µM

## OC[C@H]1O[C@@H](n2cnc3c(N[C@H]4CCC[C@@H]4OCc4cccc(F)c4)ncnc32)[C@H](O)[C@@H]1O [Compound 8, (2R,3R,4S,5R)-2-(6-((1S,2S)-2-(3-fluorobenzyloxy)cyclopentylamino)-9H-purin-9-yl)-5-(hydroxymethyl)tetrahydrofuran-3,4-diol]
[2]
  Ki: 5.54 µM
[3]
  Ki: 1.63 µM

## Cc1cccc(CO[C@H]2CCC[C@@H]2Nc2ncnc3c2ncn3[C@@H]2O[C@H](CO)[C@@H](O)[C@H]2O)c1 [Compound 6, (2R,3S,4R,5R)-2-(hydroxymethyl)-5-(6-((1S,2S)-2-(3-methylbenzyloxy)cyclopentylamino)-9H-purin-9-yl)tetrahydrofuran-3,4-diol]
[1]
  Ki: 0.00279 µM
[2]
  Ki: 5.32 µM
[3]
  Ki: 1.35 µM

## Cc1ccccc1CO[C@@H]1CCC[C@H]1Nc1ncnc2c1ncn2[C@@H]1O[C@H](CO)[C@@H](O)[C@H]1O [Compound 18, (2R,3S,4R,5R)-2-(hydroxymethyl)-5-(6-((1R,2R)-2-(2-methylbenzyloxy)cyclopentylamino)-9H-purin-9-yl)tetrahydrofuran-3,4-diol]
[1]
  Ki: 0.00228 µM
[4]; topical single dose 200 mcg
  return of IOP to baseline levels, time post dosing: 6 h
[4]; topical single dose 200 mcg in HPCD formulation, 2 hours post dosing
  reduction of IOP: 20%
[2]
  Ki: 0.422 µM
[3]
  Ki: 5.1 µM

## Cc1cccc(CO[C@@H]2CCC[C@H]2Nc2ncnc3c2ncn3[C@@H]2O[C@H](CO)[C@@H](O)[C@H]2O)c1 [Compound 17, (2R,3S,4R,5R)-2-(hydroxymethyl)-5-(6-((1R,2R)-2-(3-methylbenzyloxy)cyclopentylamino)-9H-purin-9-yl)tetrahydrofuran-3,4-diol]
[1]
  Ki: 0.00265 µM
[4]; topical single dose 200 mcg
  changes in IOP relative to baseline after dosing (in words): do not show significant changes in IOP
[2]
  Ki: 3.37 µM
[3]
  Ki: 2.62 µM

## OC[C@H]1O[C@@H](n2cnc3c(N[C@@H]4CCC[C@H]4OCc4ccc(F)cc4)ncnc32)[C@H](O)[C@@H]1O [Compound 20, (2R,3R,4S,5R)-2-(6-((1R,2R)-2-(4-fluorobenzyloxy)cyclopentylamino)-9H-purin-9-yl)-5-(hydroxymethyl)tetrahydrofuran-3,4-diol]
[2]
  Ki: 3.78 µM
[3]
  Ki: 3.71 µM

## OC[C@H]1O[C@@H](n2cnc3c(N[C@@H]4CCC[C@H]4OCc4cccc(I)c4)ncnc32)[C@H](O)[C@@H]1O [Compound 22, (2R,3S,4R,5R)-2-(hydroxymethyl)-5-(6-((1R,2R)-2-(3-iodobenzyloxy)cyclopentylamino)-9H-purin-9-yl)tetrahydrofuran-3,4-diol]
[3]
  Ki: 0.551 µM

## OC[C@H]1OC(n2cnc3c(NC4CCCCC4OCc4ccccc4)ncnc32)[C@H](O)[C@@H]1O (stereo partly shown) [Compound 4]
[3]
  Ki: > 100 µM

## OC[C@H]1OC(n2cnc3c(NC4CCCCC4OCc4ccccc4)ncnc32)[C@H](O)[C@@H]1O (stereo partly shown) [Compound 5]
[3]
  Ki: > 100 µM

## Cc1ccc(CO[C@H]2CCC[C@@H]2Nc2ncnc3c2ncn3[C@@H]2O[C@H](CO)[C@@H](O)[C@H]2O)cc1 [Compound 3, (2R,3S,4R,5R)-2-(hydroxymethyl)-5-(6-((1S,2S)-2-(4-methylbenzyloxy)cyclopentylamino)-9H-purin-9-yl)tetrahydrofuran-3,4-diol]
[1]
  Ki: 0.029 µM
[2]
  Ki: 25.4 µM
[3]
  Ki: 2.55 µM
